Results as given in article PMC12281142, “A potent phenylalkylamine disrupts mycobacterial membrane bioenergetics and augments bactericidal activity of bedaquiline” (iScience, 2025).
In brackets after ≈: the same amount, converted by molar mass. Like-named read-outs stand apart in the source and are kept apart here.

Columns and labels:
[1] = tested on: Mab abscessus ATCC 19977; experiment: MIC against Mab abscessus ATCC 19977; type: cell-based, Mycobacterium abscessus subsp. abscessus; conditions: for MIC90: read-out: MIC90 Mab abscessus ATCC 19977; for MIC50 Mab abscessus ATCC 19977: 3 days
[2] = tested on: Mab massiliense CCUG 48898-T; experiment: MIC against Mab massiliense CCUG 48898-T; type: cell-based, Mycobacterium abscessus subsp. massiliense; conditions: for MIC50 Mab massiliense CCUG 48898-T: 3 days
[3] = tested on: HepG2; experiment: Cytotoxicity in HepG2 cells; type: cell-based, human; conditions: 48 h, growth suppressed by 50% vs untreated
Method: (§1) To each well in a 96-well plate, 50,000 cells in 100 μL media were seeded. Vero E6 and HepG2 cells were incubated overnight in DMEM for cell adherence at 37°C and 5% CO2. The media was removed from the wells and 100 μL solution made up of fresh DMEM media (99 μL) and the test compound (1 μL from a DMSO stock solution that was […] more concentrated than the final concentration in the well) was then added to each well. DMSO content of each well was consistently kept at 0.5 %v/v. Treated plates were incubated for 48 h (5% CO2, 37°C), after which 10 μL of Celltitre 96 Aqueous One Solution was added to each well, without removal of media, and incubated for a further 3 h. Subsequently, absorbance readings were taken at 490 nm on a Tecan GENios Microplate Reader.
(§2) Cell viability was determined from the expression: Cellviability(%)={[Absorbance(cells+cpd)−Absorbance(cpd)]/[Absorbance(cells+vc)−Absorbance(vc)]}×100% where Absorbance (cells + cpd) = absorbance of wells containing cells and test compound in vehicle (media +0.5% DMSO); Absorbance (cpd) = absorbance of wells containing test compound in vehicle without cells (compound control); Absorbance (cells + vc) = absorbance of wells containing cells in vehicle (vc) only (untreated cells); Absorbance (vc) = absorbance of wells containing vehicle without cells (vehicle control). The percentage viability readings were plotted against log(concentration) on GraphPad Prism (Version 7.0, San Diego, CA) to give a sigmoidal curve, from which IC50, defined as the concentration of the compound that reduced cell viability by 50%, was obtained. At least 3 separate determinations were carried out.

[4] = tested on: Vero E6; experiment: Cytotoxicity in Vero E6 cells; type: cell-based, African green monkey; conditions: 48 h, growth suppressed by 50% vs untreated
Method: as §1, §2

[5] = tested on: Mtb H37Rv; experiment: MIC by broth microdilution against Mtb H37Rv; type: cell-based, Mycobacterium tuberculosis; conditions: incubation 5 days; for MIC50 Mtb H37Rv: first value of cell MIC50/MIC90; for MIC90: second value of cell MIC50/MIC90, read-out: MIC90 Mtb H37Rv
[6] = tested on: Mab bolletii CCUG 50184-T; experiment: MIC against Mab bolletii CCUG 50184-T; type: cell-based, Mycobacterium abscessus subsp. bolletii; conditions: for MIC50 Mab bolletii CCUG 50184-T: 3 days
[7] = tested on: M. bovis BCG; experiment: microbe, parasite or virus in culture; type: cell-based, Mycobacterium bovis BCG
[8] = tested on: clinical isolates of Mab; experiment: MIC50 against Mab clinical isolates; type: cell-based, Mycobacterium abscessus; conditions: range over isolates
[9] = tested on: M. bovis BCG; type: cell-based, Mycobacterium bovis BCG
[10] = 7H9 medium (first value of cell)
[11] = CA-MHB medium (second value of cell)

## COc1ccc(CCN(C)CCCC(C#N)(C/C=C(\C)CCC=C(C)C)c2ccc(OC)c(OC)c2)cc1OC (racemic) [PhA3]
[1]; 7H9 broth (first value)
  MIC90: 104 µM (≈ 57.1 µg/mL)
[1]; [10]
  MIC50 Mab abscessus ATCC 19977: 47 µM (≈ 25.8 µg/mL)
[1]; [11]
  MIC50 Mab abscessus ATCC 19977: 17 µM (≈ 9.33 µg/mL)
[1]; camH broth (second value)
  MIC90: 31 µM (≈ 17 µg/mL)
[2]; 7H9 broth (first value)
  MIC90: 96 µM (≈ 52.7 µg/mL)
[2]; [10]
  MIC50 Mab massiliense CCUG 48898-T: 42 µM (≈ 23 µg/mL)
[2]; [11]
  MIC50 Mab massiliense CCUG 48898-T: 10 µM (≈ 5.49 µg/mL)
[2]; camH broth (second value)
  MIC90: 56 µM (≈ 30.7 µg/mL)
[3]
  IC50: 32 µM
[4]
  IC50: 27 µM
[5]
  MIC50 Mtb H37Rv: 19 µM (≈ 10.4 µg/mL)
  MIC90: 42 µM (≈ 23 µg/mL)
[6]; 7H9 broth (first value)
  MIC90: 98 µM (≈ 53.8 µg/mL)
[6]; [10]
  MIC50 Mab bolletii CCUG 50184-T: 47 µM (≈ 25.8 µg/mL)
[6]; [11]
  MIC50 Mab bolletii CCUG 50184-T: 13 µM (≈ 7.13 µg/mL)
[6]; camH broth (second value)
  MIC90: 26 µM (≈ 14.3 µg/mL)
[7]
  MIC50: 11 µM (≈ 6.04 µg/mL)
  MIC50 BCG With Glycerol: 11 µM (≈ 6.04 µg/mL)
  MIC50 BCG Without Glycerol: 18 µM (≈ 9.88 µg/mL)
  MIC90 (Table S1): 22 µM (≈ 12.1 µg/mL)
[8]
  MIC50 seven Mab clinical isolates: 12 to 21 µg/mL
[9]
  CFUs above the detection limit: 10–100 times

## COc1ccc(CCN(C)CCCC(C#N)(c2ccc(OC)c(OC)c2)C2CCCCCCC2)cc1OC (stereo not shown) [PhA4]
[7]
  MIC50: 23 µM (≈ 12 µg/mL)
  MIC90: 44 µM (≈ 23 µg/mL)
  MIC90 (Table S1): 44 µM (≈ 23 µg/mL)

## COc1ccc(CCN(C)CCCC(C#N)(Cc2ccc(Br)cc2)c2ccc(OC)c(OC)c2)cc1OC (stereo not shown) [PhA5]
[7]
  MIC50: 17 µM (≈ 9.89 µg/mL)
  MIC90: 43 µM (≈ 25 µg/mL)
  MIC90 (Table S1): 43 µM (≈ 25 µg/mL)

## COc1ccc(CCN(C)CCCC(C#N)(Cc2cccc(Cl)c2)c2ccc(OC)c(OC)c2)cc1OC (stereo not shown) [PhA6]
[7]
  MIC50: 17 µM (≈ 9.13 µg/mL)
  MIC90: 45 µM (≈ 24.2 µg/mL)
  MIC90 (Table S1): 45 µM (≈ 24.2 µg/mL)

## COc1ccc(CCN(C)CCCC(C#N)(c2ccc(Cl)c(Cl)c2)C(C)C)cc1OC (stereo not shown) [PhA7]
[7]
  MIC50: 27 µM (≈ 12.5 µg/mL)
  MIC90: 47 µM (≈ 21.8 µg/mL)
  MIC90 (Table S1): 47 µM (≈ 21.8 µg/mL)

## COc1ccc(C(C#N)(CCCN(C)CCc2ccc(Cl)c(Cl)c2)C(C)C)cc1OC (stereo not shown) [PhA8]
[7]
  MIC50: 26 µM (≈ 12 µg/mL)
  MIC90: 45 µM (≈ 20.9 µg/mL)
  MIC90 (Table S1): 45 µM (≈ 20.9 µg/mL)

## COc1ccc(CCN(C)CCCCCCCCCCCCC(C#N)(c2ccc(OC)c(OC)c2)C(C)C)cc1OC (stereo not shown) [PhA10]
[7]
  MIC50: 18 µM (≈ 10.5 µg/mL)
  MIC90: 32 µM (≈ 18.6 µg/mL)
  MIC90 (Table S1): 32 µM (≈ 18.6 µg/mL)

## COc1ccc(CCN(C)CCCC(C#N)(CCC2CCCCC2)c2ccc(Cl)c(Cl)c2)cc1OC (stereo not shown) [PhA11]
[1]; 7H9 broth (first value)
  MIC90: > 250 µM
[1]; [10]
  MIC50 Mab abscessus ATCC 19977: > 250 µM
[1]; [11]
  MIC50 Mab abscessus ATCC 19977: 175 µM (≈ 93 µg/mL)
[1]; camH broth (second value)
  MIC90: > 250 µM
[2]; 7H9 broth (first value)
  MIC90: > 250 µM
[2]; [10]
  MIC50 Mab massiliense CCUG 48898-T: > 250 µM
[2]; [11]
  MIC50 Mab massiliense CCUG 48898-T: 21 µM (≈ 11.2 µg/mL)
[2]; camH broth (second value)
  MIC90: > 250 µM
[3]
  IC50: 44 µM
[4]
  IC50: 57 µM
[5]
  MIC50 Mtb H37Rv: 19/40 μM
  MIC90 Mtb H37Rv: 19/40 μM
[6]; 7H9 broth (first value)
  MIC90: > 250 µM
[6]; [10]
  MIC50 Mab bolletii CCUG 50184-T: > 250 µM
[6]; [11]
  MIC50 Mab bolletii CCUG 50184-T: 160 µM (≈ 85.1 µg/mL)
[6]; camH broth (second value)
  MIC90: > 250 µM
[7]
  MIC50: 14 µM (≈ 7.44 µg/mL)
  MIC50 BCG Without Glycerol: 46 µM (≈ 24.5 µg/mL)
  MIC90: 25 µM (≈ 13.3 µg/mL)
  MIC90 (Table S1): 25 µM (≈ 13.3 µg/mL)
  MIC90 BCG: 13 µg/mL (≈ 24.5 µM)

## COc1ccc(CCN(C)CCCC(C#N)(CC=C(C)CCC=C(C)C)c2ccc(Cl)c(Cl)c2)cc1OC (stereo not shown) [PhA13]
[1]; 7H9 broth (first value)
  MIC90: > 250 µM
[1]; [10]
  MIC50 Mab abscessus ATCC 19977: >250/250 uM
[1]; [11]
  MIC50 Mab abscessus ATCC 19977: >250/250 uM
[1]; camH broth (second value)
  MIC90: > 250 µM
[2]; 7H9 broth (first value)
  MIC90: > 250 µM
[2]; [10]
  MIC50 Mab massiliense CCUG 48898-T: > 250 µM
[2]; [11]
  MIC50 Mab massiliense CCUG 48898-T: 23 µM (≈ 12.8 µg/mL)
[2]; camH broth (second value)
  MIC90: > 250 µM
[3]
  IC50: 42 µM
[4]
  IC50: 60 µM
[5]
  MIC50 Mtb H37Rv: 21 µM (≈ 11.7 µg/mL)
  MIC90: 45 µM (≈ 25.1 µg/mL)
[6]; 7H9 broth (first value)
  MIC90: > 250 µM
[6]; camH broth (second value)
  MIC90: > 250 µM
[7]
  MIC50: 12 µM (≈ 6.69 µg/mL)
  MIC50 BCG With Glycerol: 12 µM (≈ 6.69 µg/mL)
  MIC50 BCG Without Glycerol: 30 µM (≈ 16.7 µg/mL)
  MIC90: 23 µM (≈ 12.8 µg/mL)
  MIC90 (Table S1): 23 µM (≈ 12.8 µg/mL)
  MIC90 BCG: 13 µg/mL (≈ 23.3 µM)

## COc1ccc(CCN(C)CCCC(C#N)(c2ccc(Cl)cc2)C2CCCCC2)cc1OC (stereo not shown) [PhA14]
[7]
  MIC50: 19 µM (≈ 8.91 µg/mL)
  MIC90: 35 µM (≈ 16.4 µg/mL)
  MIC90 (Table S1): 35 µM (≈ 16.4 µg/mL)

## COc1ccc(CCN(C)CCCC(C#N)(CC2CCCCC2)c2ccc(Cl)cc2)cc1OC (stereo not shown) [PhA15]
[7]
  MIC50: 21 µM (≈ 10.1 µg/mL)
  MIC90: 37 µM (≈ 17.9 µg/mL)
  MIC90 (Table S1): 37 µM (≈ 17.9 µg/mL)

## COc1ccc(C(C#N)(CC=C(C)CCC=C(C)C)CCCN2CCN(C(c3ccccc3)c3ccccc3)CC2)cc1OC (stereo not shown) [PhA16]
[7]
  MIC50: 29 µM (≈ 17.6 µg/mL)
  MIC90: 46 µM (≈ 27.9 µg/mL)
  MIC90 (Table S1): 46 µM (≈ 27.9 µg/mL)

## COc1ccc(C(C#N)(CCCn2c(C)nc3ccccc32)C(C)C)cc1OC (stereo not shown) [PhA17]
[7]
  MIC90 (Table S1): > 250 µM

## COc1ccc(C(C#N)(CCCn2c(N)nc3ccccc32)C(C)C)cc1OC (stereo not shown) [PhA18]
[7]
  MIC90 (Table S1): 155 µM (≈ 60.8 µg/mL)

## COc1ccc(C(C#N)(CCCN2CCN(c3ccccc3Cl)CC2)C(C)C)cc1OC (stereo not shown) [PhA19]
[7]
  MIC90 (Table S1): 73 µM (≈ 33.3 µg/mL)

## COc1ccc(C(C#N)(CCCN2CCN(c3ccccc3OC)CC2)C(C)C)cc1OC (stereo not shown) [PhA20]
[7]
  MIC90 (Table S1): 163 µM (≈ 73.6 µg/mL)

## COc1ccc(C(C#N)(CCCN2CCN(c3cccc(O)c3)CC2)C(C)C)cc1OC (stereo not shown) [PhA21]
[7]
  MIC90 (Table S1): > 250 µM

## COc1ccc(CCN(C)CCCC(C#N)(c2cc(OC)c(OC)c(OC)c2)C(C)C)cc1OC (stereo not shown) [PhA52, gallopamil, reference compound]
[7]; M. bovis BCG, broth dilution
  MIC90 (Table S1): > 250 µM

## COc1cccc(CCN(C)CCCC(C#N)(c2ccc(OC)c(OC)c2)C(C)C)c1 (stereo not shown) [PhA57, devapamil, reference compound]
[7]; Mycobacterium tuberculosis variant bovis BCG, BCG, read-out: MIC90 (Table S1), M. bovis BCG, broth dilution
  MIC90: 180 µM (≈ 76.4 µg/mL)

## CC(C)C(C#N)(CCCN(C)CCc1ccc(Cl)c(Cl)c1)c1ccc(Cl)c(Cl)c1 (stereo not shown) [PhA66]
[7]
  MIC50: 56 µM (≈ 26.4 µg/mL)

## carbonyl cyanide m-chlorophenyl hydrazine [CCCP, reference compound]
[7]
  MIC90: 50 µM
  MIC90 BCG: 10 µg/mL
